Measured values from ChEMBL document CHEMBL5352421, “Identification of novel piperazine-tethered phthalazines as selective CDK1 inhibitors endowed with in vitro anticancer activity toward the pancreatic cancer” (Eur J Med Chem, 2022).

What was measured:
BT-549 = assay: Antiproliferative activity against human BT-549 cells assessed as growth inhibition incubated at 10 uM for 24 hrs by MTT assay relative to control; assay type: functional; conditions: read-out: GI
[1] = Selectivity index, ratio of IC50 for CDK5 (unknown origin) to CDK1 (unknown origin)
[2] = target: Fibroblast growth factor receptor (Homo sapiens, UniProt P22607+P11362+P22455+P21802); assay: Inhibition of FGFR (unknown origin) by FRET assay; assay type: protein assay
[3] = Antiproliferative activity against human PL45 cells assessed as growth inhibition incubated at 10 uM for 24 hrs by MTT assay relative to control; assay type: functional; conditions: read-out: GI
[4] = target: T1, Tyrosine-protein kinase receptor UFO (Homo sapiens, UniProt P30530); assay: Inhibition of AXL (unknown origin) by FRET assay
T1 sequence (P30530 whole entry): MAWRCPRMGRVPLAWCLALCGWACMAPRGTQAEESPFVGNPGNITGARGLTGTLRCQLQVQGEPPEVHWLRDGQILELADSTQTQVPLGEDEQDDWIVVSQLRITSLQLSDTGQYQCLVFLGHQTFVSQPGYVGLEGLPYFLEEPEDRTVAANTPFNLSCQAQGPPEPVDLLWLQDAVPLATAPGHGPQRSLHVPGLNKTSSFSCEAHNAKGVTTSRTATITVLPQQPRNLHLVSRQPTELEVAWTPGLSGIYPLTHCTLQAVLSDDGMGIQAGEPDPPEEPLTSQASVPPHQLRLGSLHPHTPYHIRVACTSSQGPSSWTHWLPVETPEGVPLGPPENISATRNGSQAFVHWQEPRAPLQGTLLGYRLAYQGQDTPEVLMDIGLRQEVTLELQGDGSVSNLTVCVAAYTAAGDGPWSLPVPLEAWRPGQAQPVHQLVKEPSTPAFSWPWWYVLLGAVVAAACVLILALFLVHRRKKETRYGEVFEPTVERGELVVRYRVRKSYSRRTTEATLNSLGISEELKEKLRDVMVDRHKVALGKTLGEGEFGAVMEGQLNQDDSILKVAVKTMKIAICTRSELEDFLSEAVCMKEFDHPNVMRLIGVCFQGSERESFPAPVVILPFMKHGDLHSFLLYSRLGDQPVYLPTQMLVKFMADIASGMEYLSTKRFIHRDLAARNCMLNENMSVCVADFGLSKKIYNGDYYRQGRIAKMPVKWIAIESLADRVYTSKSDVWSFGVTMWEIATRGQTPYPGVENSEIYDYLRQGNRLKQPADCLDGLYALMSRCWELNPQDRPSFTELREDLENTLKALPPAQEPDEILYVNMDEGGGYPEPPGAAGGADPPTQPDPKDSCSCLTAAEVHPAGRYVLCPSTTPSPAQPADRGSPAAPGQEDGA

[5] = target: Insulin-like growth factor 1 receptor (Homo sapiens, UniProt P08069); assay: Inhibition of IGF1R (unknown origin) by FRET assay
[6] = target: Protein-tyrosine kinase 2-beta (Homo sapiens, UniProt Q14289); assay: Inhibition of PTK2B (unknown origin) by FRET assay
[7] = target: Cyclin-dependent kinase 5 (Homo sapiens, UniProt Q00535); assay: Inhibition of CDK5 (unknown origin) by FRET assay
KG-1 = assay: Antiproliferative activity against human KG-1 cells assessed as growth inhibition incubated at 10 uM for 24 hrs by MTT assay relative to control; assay type: functional; conditions: read-out: GI
MCF7 = assay: Antiproliferative activity against human MCF7 cells assessed as growth inhibition incubated at 10 uM for 24 hrs by MTT assay relative to control; assay type: functional; conditions: read-out: GI
[8] = target: Cyclin-dependent kinase 1 (Homo sapiens, UniProt P06493); assay: Inhibition of CDK1 (unknown origin) by FRET assay
[9] = target: Tyrosine-protein kinase JAK1 (Homo sapiens, UniProt P23458); assay: Inhibition of JAK1 (unknown origin) by FRET assay
A-375 = assay: Antiproliferative activity against human A-375 cells assessed as growth inhibition incubated at 10 uM for 24 hrs by MTT assay relative to control; assay type: functional; conditions: read-out: GI
G-361 = assay: Antiproliferative activity against human G-361 cells assessed as growth inhibition incubated at 10 uM for 24 hrs by MTT assay relative to control; assay type: functional; conditions: read-out: GI
[10] = Selectivity index, ratio of IC50 for CDK2 (unknown origin) to CDK1 (unknown origin)
MOLT-4 = assay: Antiproliferative activity against human MOLT-4 cells assessed as growth inhibition incubated at 10 uM for 24 hrs by MTT assay relative to control; assay type: functional; conditions: read-out: GI
[11] = Antiproliferative activity against human PL45 cells assessed as growth inhibition incubated for 24 hrs by MTT assay; assay type: functional, cell-based; conditions: PL45, 24 h
HT-29 = assay: Antiproliferative activity against human HT-29 cells assessed as growth inhibition incubated at 10 uM for 24 hrs by MTT assay relative to control; assay type: functional; conditions: read-out: GI
[12] = target: Serine/threonine-protein kinase B-raf (Homo sapiens, UniProt P15056); assay: Inhibition of BRAF (unknown origin) by FRET assay
[13] = Antiproliferative activity against human MDA-PATC53 cells assessed as growth inhibition incubated at 10 uM for 24 hrs by MTT assay relative to control; assay type: functional; conditions: read-out: GI
[14] = target: Cyclin-dependent kinase 2 (Homo sapiens, UniProt P24941); assay: Inhibition of CDK2 (unknown origin) by FRET assay
[15] = Antiproliferative activity against human MDA-PATC53 cells assessed as growth inhibition incubated for 24 hrs by MTT assay; assay type: functional, cell-based; conditions: MDA-PATC53, 24 h
SK-MEL-1 = assay: Antiproliferative activity against human SK-MEL-1 cells assessed as growth inhibition incubated at 10 uM for 24 hrs by MTT assay relative to control; assay type: functional; conditions: read-out: GI
T84 = assay: Antiproliferative activity against human T84 cells assessed as growth inhibition incubated at 10 uM for 24 hrs by MTT assay relative to control; assay type: functional; conditions: read-out: GI

Protein-tyrosine kinase 2-beta, sequence (Q14289 whole entry): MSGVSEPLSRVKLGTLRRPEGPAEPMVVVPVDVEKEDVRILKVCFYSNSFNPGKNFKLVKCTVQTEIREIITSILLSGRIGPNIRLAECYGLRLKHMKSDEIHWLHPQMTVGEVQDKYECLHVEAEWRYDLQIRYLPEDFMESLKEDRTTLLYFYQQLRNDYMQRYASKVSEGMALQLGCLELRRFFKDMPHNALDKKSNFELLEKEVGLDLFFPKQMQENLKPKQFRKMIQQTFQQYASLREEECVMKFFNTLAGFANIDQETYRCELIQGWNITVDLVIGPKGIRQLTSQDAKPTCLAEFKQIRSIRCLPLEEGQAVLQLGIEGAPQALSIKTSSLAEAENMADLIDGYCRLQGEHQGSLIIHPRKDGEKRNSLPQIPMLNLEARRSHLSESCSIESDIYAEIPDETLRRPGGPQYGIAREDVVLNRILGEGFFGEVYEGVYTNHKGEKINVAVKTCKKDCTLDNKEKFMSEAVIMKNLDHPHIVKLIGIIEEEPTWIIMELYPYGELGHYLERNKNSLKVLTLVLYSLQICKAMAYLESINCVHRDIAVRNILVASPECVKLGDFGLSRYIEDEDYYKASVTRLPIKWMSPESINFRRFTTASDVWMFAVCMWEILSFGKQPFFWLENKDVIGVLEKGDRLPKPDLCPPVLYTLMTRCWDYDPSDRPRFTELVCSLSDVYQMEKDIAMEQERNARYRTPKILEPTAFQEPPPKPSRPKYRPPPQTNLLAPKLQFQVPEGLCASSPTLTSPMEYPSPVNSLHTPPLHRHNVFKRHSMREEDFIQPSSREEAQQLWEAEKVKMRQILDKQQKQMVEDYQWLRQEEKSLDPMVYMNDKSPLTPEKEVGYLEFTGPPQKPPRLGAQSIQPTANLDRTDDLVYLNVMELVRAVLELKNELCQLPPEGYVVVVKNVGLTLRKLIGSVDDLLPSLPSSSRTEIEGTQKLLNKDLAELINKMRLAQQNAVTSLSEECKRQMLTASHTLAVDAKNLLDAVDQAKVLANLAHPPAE
Tyrosine-protein kinase JAK1, sequence (P23458 whole entry): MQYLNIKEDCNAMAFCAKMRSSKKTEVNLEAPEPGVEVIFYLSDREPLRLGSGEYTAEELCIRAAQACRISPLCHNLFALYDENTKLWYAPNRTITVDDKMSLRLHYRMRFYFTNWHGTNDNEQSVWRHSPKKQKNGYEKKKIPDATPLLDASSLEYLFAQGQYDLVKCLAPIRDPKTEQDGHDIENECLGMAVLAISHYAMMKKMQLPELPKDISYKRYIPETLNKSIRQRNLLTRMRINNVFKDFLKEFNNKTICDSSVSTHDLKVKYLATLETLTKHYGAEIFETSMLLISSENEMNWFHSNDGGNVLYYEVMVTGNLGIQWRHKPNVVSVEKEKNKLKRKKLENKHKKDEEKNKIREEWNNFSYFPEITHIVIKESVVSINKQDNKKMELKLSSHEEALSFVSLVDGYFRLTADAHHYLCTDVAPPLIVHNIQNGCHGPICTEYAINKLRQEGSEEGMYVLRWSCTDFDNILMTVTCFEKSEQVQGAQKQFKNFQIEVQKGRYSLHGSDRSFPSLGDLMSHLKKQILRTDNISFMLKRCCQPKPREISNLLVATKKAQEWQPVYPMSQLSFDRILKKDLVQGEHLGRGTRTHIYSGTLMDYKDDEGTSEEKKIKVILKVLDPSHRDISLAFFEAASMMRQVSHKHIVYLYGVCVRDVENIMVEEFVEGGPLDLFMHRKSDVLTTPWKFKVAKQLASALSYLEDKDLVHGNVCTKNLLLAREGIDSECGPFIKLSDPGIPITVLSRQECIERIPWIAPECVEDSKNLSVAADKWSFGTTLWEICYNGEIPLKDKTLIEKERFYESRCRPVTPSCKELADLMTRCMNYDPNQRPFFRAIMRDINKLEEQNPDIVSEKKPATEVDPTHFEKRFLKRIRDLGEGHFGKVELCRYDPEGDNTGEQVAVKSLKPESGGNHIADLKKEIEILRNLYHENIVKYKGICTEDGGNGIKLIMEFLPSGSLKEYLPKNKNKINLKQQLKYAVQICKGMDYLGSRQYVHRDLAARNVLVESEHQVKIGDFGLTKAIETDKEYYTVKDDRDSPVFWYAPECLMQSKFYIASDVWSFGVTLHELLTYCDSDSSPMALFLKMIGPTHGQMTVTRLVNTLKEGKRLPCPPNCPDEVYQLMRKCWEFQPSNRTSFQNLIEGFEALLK
Cyclin-dependent kinase 1, sequence (P06493 whole entry): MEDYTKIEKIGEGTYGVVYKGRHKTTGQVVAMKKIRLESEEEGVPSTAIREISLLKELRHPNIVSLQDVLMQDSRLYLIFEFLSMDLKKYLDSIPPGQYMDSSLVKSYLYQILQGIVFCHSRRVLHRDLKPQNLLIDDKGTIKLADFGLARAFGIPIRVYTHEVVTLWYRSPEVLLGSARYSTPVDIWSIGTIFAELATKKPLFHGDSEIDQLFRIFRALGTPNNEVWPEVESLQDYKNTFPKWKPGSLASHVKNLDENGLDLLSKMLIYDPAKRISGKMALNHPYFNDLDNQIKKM
Cyclin-dependent kinase 5, sequence (Q00535 whole entry): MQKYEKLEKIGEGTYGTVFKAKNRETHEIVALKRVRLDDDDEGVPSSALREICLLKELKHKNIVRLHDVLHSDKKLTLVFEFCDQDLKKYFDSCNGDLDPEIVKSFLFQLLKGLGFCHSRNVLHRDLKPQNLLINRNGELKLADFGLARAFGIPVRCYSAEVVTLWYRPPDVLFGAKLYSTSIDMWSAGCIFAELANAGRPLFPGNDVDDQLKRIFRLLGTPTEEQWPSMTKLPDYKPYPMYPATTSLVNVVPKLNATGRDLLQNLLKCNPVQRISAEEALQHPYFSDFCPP
Serine/threonine-protein kinase B-raf, sequence (P15056 whole entry): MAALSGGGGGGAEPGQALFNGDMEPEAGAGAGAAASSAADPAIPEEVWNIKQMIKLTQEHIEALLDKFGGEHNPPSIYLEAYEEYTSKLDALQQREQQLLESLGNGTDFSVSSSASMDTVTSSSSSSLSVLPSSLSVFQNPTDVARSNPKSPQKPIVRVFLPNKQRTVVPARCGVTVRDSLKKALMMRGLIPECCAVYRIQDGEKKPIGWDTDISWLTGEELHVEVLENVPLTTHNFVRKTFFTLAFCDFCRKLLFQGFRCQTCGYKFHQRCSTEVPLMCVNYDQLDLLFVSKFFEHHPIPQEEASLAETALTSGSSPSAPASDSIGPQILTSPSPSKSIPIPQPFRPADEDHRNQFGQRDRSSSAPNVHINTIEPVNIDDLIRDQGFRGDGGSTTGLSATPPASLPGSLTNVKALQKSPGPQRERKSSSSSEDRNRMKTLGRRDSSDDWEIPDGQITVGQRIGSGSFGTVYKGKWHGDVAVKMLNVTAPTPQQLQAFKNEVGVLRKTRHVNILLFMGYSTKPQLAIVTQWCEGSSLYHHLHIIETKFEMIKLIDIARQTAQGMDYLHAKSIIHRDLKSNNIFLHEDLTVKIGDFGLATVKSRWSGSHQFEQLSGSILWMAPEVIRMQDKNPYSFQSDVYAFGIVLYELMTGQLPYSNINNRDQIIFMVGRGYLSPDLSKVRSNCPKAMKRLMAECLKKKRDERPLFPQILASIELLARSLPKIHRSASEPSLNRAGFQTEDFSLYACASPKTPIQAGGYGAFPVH
Insulin-like growth factor 1 receptor, sequence (P08069 31-736 limits assumed): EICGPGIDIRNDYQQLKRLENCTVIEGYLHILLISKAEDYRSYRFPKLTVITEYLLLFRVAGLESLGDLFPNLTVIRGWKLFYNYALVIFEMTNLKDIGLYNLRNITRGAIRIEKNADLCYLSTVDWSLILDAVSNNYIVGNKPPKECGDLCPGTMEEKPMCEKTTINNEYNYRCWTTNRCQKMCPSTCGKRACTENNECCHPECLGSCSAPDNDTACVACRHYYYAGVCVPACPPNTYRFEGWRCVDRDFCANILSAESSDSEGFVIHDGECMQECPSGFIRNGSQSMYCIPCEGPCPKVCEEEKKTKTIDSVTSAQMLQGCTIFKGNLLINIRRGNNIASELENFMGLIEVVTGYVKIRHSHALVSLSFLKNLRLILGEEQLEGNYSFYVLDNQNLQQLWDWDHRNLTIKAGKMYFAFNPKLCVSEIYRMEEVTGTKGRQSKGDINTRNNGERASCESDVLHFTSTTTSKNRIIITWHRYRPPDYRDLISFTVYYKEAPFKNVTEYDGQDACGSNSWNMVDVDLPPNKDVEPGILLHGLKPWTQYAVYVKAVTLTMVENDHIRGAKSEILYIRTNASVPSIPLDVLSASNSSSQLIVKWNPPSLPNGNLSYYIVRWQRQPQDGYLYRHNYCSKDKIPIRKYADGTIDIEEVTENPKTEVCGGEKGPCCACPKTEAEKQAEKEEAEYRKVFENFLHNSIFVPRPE
Insulin-like growth factor 1 receptor, sequence (P08069 741-1367 limits assumed): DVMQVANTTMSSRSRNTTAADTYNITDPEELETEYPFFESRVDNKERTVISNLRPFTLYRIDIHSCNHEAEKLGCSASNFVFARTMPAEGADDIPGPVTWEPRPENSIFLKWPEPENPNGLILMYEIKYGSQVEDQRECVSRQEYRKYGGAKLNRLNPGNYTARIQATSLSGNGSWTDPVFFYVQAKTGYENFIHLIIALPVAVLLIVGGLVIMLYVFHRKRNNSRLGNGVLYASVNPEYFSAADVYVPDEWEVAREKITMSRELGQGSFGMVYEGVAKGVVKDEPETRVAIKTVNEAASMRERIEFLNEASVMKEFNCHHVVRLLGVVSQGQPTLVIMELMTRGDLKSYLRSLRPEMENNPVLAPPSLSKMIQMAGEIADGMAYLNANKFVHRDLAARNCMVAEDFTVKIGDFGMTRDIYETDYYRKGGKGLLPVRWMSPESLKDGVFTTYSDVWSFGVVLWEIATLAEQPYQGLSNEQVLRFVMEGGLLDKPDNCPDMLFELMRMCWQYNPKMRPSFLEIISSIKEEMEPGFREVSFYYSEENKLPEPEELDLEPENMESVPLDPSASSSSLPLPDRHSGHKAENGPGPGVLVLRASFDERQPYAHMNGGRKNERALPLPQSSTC

Compound | Ratio IC50 [1] | IC50 [2] | IC50 [4] | IC50 [5] | IC50 [6] | IC50 [7] | IC50 [8] | IC50 [9] | Ratio IC50 [10] | IC50 [12] | inhibition of growth at 10 µM (BT-549) | inhibition of growth at 10 µM [3] | inhibition of growth at 10 µM (KG-1) | inhibition of growth at 10 µM (MCF7) | inhibition of growth at 10 µM (A-375) | inhibition of growth at 10 µM (G-361) | inhibition of growth at 10 µM (MOLT-4) | IC50 [11] | inhibition of growth at 10 µM (HT-29) | IC50 [15] | further results
COc1cccc(NC(=S)N2CCN(c3nnc(Cc4ccccc4)c4ccccc34)CC2)c1 | 7.98 | 3.853 µM | 7.95 µM | 1.13 µM | 4.49 µM | 0.705 µM | 0.0884 µM | 3.54 µM | 4.82 | 3.88 µM | 52.1% | 66% | 28.5% | 34.2% | 60.1% | 31.2% | 31.2% | 5.76 µM | 60.2% | 3.88 µM | inhibition of growth at 10 µM [13]: 76.3%; IC50 [14]: 0.426 µM; inhibition of growth at 10 µM (SK-MEL-1): 49.3%; inhibition of growth at 10 µM (T84): 49.7%
O=C(Nc1ccccc1)N1CCN(c2nnc(Cc3ccccc3)c3ccccc23)CC1 | 2.95 | 2.579 µM | 7.53 µM | 1.27 µM | 2.49 µM | 0.159 µM | 0.0538 µM | 3.63 µM | 5.31 | 9.31 µM | 76.5% | 87.4% | 29.7% | 18.4% | 62% | 23.8% | 41% | 1.65 µM | 36.2% | 2.97 µM | inhibition of growth at 10 µM [13]: 77.9%; IC50 [14]: 0.286 µM; inhibition of growth at 10 µM (SK-MEL-1): 49.7%; inhibition of growth at 10 µM (T84): 63.1%
CCc1cnn2c(NCc3ccc[n+]([O-])c3)cc(N3CCCC[C@H]3CCO)nc12 [DINACICLIB] |  |  |  |  |  |  |  |  |  |  |  |  |  |  |  |  |  | 0.015 µM |  | 0.024 µM | 
O=C(Nc1ccc(Cl)c(C(F)(F)F)c1)N1CCN(c2nnc(Cc3ccccc3)c3ccccc23)CC1 | 3.91 | 8.565 µM | 6.95 µM | 4.25 µM | 2.68 µM | 0.405 µM | 0.104 µM | 5.18 µM | 6.97 | 1.48 µM | 1.08% | 42.4% | 1.35% | 2.2% | 9.17% | 2.47% | 5.22% | 13.1 µM | 18.9% | 8.6 µM | inhibition of growth at 10 µM [13]: 55.4%; IC50 [14]: 0.722 µM; inhibition of growth at 10 µM (SK-MEL-1): 3.34%; inhibition of growth at 10 µM (T84): 4.71%

Second part, led by results:

Ratio IC50 [1] | IC50 [2] | IC50 [4] | IC50 [5] | IC50 [6] | IC50 [7] | IC50 [8] | IC50 [9] | Ratio IC50 [10] | IC50 [12] | Compound | inhibition of growth at 10 µM (BT-549) | inhibition of growth at 10 µM [3] | inhibition of growth at 10 µM (KG-1) | inhibition of growth at 10 µM (MCF7) | inhibition of growth at 10 µM (A-375) | inhibition of growth at 10 µM (G-361) | inhibition of growth at 10 µM (MOLT-4) | IC50 [11] | inhibition of growth at 10 µM (HT-29) | IC50 [15] | further results
13.5 | 2.507 µM | 1.26 µM | 2.37 µM | 5.23 µM | 0.947 µM | 0.07 µM | 4.97 µM | 3.42 | 8.75 µM | S=C(Nc1ccccc1)N1CCN(c2nnc(Cc3ccccc3)c3ccccc23)CC1 | 42.1% | 78.4% | 61.9% | 64.6% | 38.2% | 58.9% | 43% | 2.54 µM | 20.7% | 1.61 µM | inhibition of growth at 10 µM [13]: 85.2%; IC50 [14]: 0.24 µM; inhibition of growth at 10 µM (SK-MEL-1): 50.9%; inhibition of growth at 10 µM (T84): 56%
7.22 | 2.628 µM | 2.37 µM | 5.42 µM | 5.82 µM | 0.601 µM | 0.0832 µM | 2.05 µM | 6.19 | 4.75 µM | COc1ccc(Cc2nnc(N3CCN(C(=O)Nc4ccccc4)CC3)c3ccccc23)cc1 | 56% | 73.6% | 49.7% | 33.4% | 36.1% | 29.8% | 27.8% | 2.98 µM | 51.3% | 11.3 µM | inhibition of growth at 10 µM [13]: 46.3%; IC50 [14]: 0.515 µM; inhibition of growth at 10 µM (SK-MEL-1): 27.1%; inhibition of growth at 10 µM (T84): 53.6%
4.22 | 4.567 µM | 2.33 µM | 4.26 µM | 7.25 µM | 0.28 µM | 0.0665 µM | 8.5 µM | 1.63 | 2.43 µM | COc1ccc(NC(=O)N2CCN(c3nnc(Cc4ccccc4)c4ccccc34)CC2)cc1 | 43.9% | 71.5% | 71.3% | 34% | 34.9% | 25.7% | 52.9% | 4.6 µM | 54.1% | 1.7 µM | inhibition of growth at 10 µM [13]: 85.2%; IC50 [14]: 0.108 µM; inhibition of growth at 10 µM (SK-MEL-1): 54.3%; inhibition of growth at 10 µM (T84): 48%
7.32 | 2.628 µM | 3.51 µM | 8.75 µM | 3.5 µM | 0.835 µM | 0.114 µM | 3.39 µM | 1.21 | 1.48 µM | O=C(c1ccc(Cl)cc1)N1CCN(c2nnc(Cc3ccccc3)c3ccccc23)CC1 | 0.65% | 57.4% | 8.36% | 18.6% | 15.3% | 24.7% | 12.1% | 8.45 µM | 4.9% | 13 µM | inhibition of growth at 10 µM [13]: 45.1%; IC50 [14]: 0.138 µM; inhibition of growth at 10 µM (SK-MEL-1): 10.4%; inhibition of growth at 10 µM (T84): 16.7%
14.5 | 4.354 µM | 2.17 µM | 7.44 µM | 2.37 µM | 0.716 µM | 0.0495 µM | 4.15 µM | 10.8 | 2.47 µM | COc1ccc(Cc2nnc(N3CCN(C(=S)Nc4ccc(Cl)cc4)CC3)c3ccccc23)cc1 | 75.4% | 86.4% | 63.9% | 71.9% | 85.6% | 72.3% | 78.4% | 1.89 µM | 80.1% | 1.62 µM | inhibition of growth at 10 µM [13]: 85.8%; IC50 [14]: 0.534 µM; inhibition of growth at 10 µM (SK-MEL-1): 64.7%; inhibition of growth at 10 µM (T84): 81.4%
